Values of other authors in patent US9839604B1, “Composition for an anti-aging treatment” (Parham Tabibian, MD, Inc., priority 2014, dated 2017).

Assays:
[1] = compared with other forms of Vitamin K1 and K2, also remains in the bloodstream longer
[2] = humectant capacity

| Molecule | levels reached in the bloodstream relative to other forms of Vitamin K1 and K2 [1] | water attracted and bound [2] |
| --- | --- | --- |
| CC(C)=CCC/C(C)=C/CC/C(C)=C/CC/C(C)=C/CC/C(C)=C/CC/C(C)=C/CC/C(C)=C/CC1=C(C)C(=O)c2ccccc2C1=O [MK-7] | seven- to eight-fold higher |  |
| hyaluronic acid |  | up to 1800 times its own weight in water |
